The source of these data is paper PMC7073080, “Characterization of Convergent Suppression by UCL-2077 (3-(Triphenylmethylaminomethyl)pyridine), Known to Inhibit Slow Afterhyperpolarization, of erg-Mediated Potassium Currents and Intermediate-Conductance Calcium-Activated Potassium Channels” (International Journal of Molecular Sciences, 2020).

The target in the experiment is T1, erg-mediated K+ channel (Kerg, KV11.1) (Rattus norvegicus, UniProt O08962).
T1 construct: gene Kcnh2; native channel in pituitary GH3 cells
T1 sequence (O08962 1-1163): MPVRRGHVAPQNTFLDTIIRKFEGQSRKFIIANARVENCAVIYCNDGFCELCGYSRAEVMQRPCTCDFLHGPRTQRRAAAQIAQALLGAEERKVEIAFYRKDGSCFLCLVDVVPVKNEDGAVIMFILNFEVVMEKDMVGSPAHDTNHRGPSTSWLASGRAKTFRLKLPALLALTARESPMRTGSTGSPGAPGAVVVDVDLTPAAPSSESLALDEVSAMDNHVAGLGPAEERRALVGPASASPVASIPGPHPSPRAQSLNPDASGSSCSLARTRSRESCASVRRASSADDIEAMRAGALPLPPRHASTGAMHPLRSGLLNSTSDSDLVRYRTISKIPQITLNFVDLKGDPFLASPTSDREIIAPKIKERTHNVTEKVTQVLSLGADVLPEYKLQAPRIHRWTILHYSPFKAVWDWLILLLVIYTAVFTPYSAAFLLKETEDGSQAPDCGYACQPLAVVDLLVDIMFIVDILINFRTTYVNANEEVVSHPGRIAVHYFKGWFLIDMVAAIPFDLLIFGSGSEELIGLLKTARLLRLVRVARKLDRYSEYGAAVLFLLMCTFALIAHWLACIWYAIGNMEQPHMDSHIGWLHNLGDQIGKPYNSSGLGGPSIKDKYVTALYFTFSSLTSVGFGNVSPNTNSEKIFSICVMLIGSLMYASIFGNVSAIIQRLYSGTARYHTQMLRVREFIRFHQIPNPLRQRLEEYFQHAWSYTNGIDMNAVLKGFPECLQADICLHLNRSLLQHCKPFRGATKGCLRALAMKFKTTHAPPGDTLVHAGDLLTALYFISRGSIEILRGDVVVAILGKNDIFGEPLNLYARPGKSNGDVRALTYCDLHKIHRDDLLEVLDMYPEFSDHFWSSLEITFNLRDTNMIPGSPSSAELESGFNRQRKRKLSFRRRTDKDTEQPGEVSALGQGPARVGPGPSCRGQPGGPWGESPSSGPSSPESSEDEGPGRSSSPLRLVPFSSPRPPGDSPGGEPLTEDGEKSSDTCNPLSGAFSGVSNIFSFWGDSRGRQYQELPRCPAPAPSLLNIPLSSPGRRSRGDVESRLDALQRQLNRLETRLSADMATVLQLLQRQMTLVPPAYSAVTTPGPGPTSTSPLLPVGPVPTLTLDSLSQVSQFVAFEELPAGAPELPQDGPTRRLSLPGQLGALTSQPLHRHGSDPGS
The experiment can be described thus: whole-cell patch clamp, concentration-response of IK(erg); KCNH2 siRNA knockdown. Conditions: gh3 cells. Type of experiment: cell-based.

`c1ccc(C(NCc2cccnc2)(c2ccccc2)c2ccccc2)cc1` [UCL-2077, 3-(triphenylmethylaminomethyl)pyridine] came in with an IC50 of 4.7 µM.

One may read the IC50 as the concentration that gives 50% inhibition. Read a high IC50 as a need for much substance.
